Patent US9808003B2, “Herbicidally active 2-(substituted-phenyl)-cyclopentane-1,3-dione compounds and derivatives thereof” (Syngenta Limited, priority 2013, dated 2017)

Legend:
Type in all cases: in vivo
[1] = tested on: Alopecurus myosuroides (ALOMY); experiment: Test 1B glasshouse assay, post-emergence herbicidal activity against grassy weeds; conditions: 14 DAA
Description: (§1) Biological Example 1B tests the herbicidal activity of“technical” compounds (i.e. compounds not previously formulated before the test), as the herbicides under test.
(§2) An “instant formulation”, known as the “IF50”, containing 50 g/liter (i.e. 5% w/v) of the “technical” (i.e. unformulated) active ingredient (i.e. the herbicide under test), is prepared by dissolving the active ingredient in a mixture of organic solvents and emulsifier, details of which are provided in the Table below.
(§3) This IF50 is mixed with a small, variable amount of acetone to aid dissolution, before addition of a 0.5% v/v aqueous solution of the adjuvant Adigor™ (an adjuvant containing rapeseed oil methyl ester, ethoxylated alcohols, and a mixture of heavy aromatic hydrocarbons, e.g. available from Syngenta), as the aqueous diluent, to form an aqueous spray solution which contains a predetermined concentration of the active ingredient (which varies depending on the application rate of the active ingredient to the plants) and 0.5% v/v of the adjuvant Adigor™. This aqueous spray solution is suitable for spraying onto plants.
(§4) Seeds of a variety of test species are sown in standard soil in pots. After cultivation for 14 days under controlled conditions in a glasshouse (at 22/16° C., day/night; 16 hours light; 65% humidity), the plants are sprayed post-emergence with the above-mentioned aqueous spray solution containing inter alia the “technical” active ingredient (i.e. the herbicide under test) and the adjuvant Adigor™.
(§5) The test plants are then grown on under controlled conditions in the glasshouse (at 22/16° C., day/night; 16 hours light; 65% humidity) and are watered twice daily. 14 days after application of the test herbicide, the test is evaluated visually for percentage phytotoxicity to the plant (where 100%=total damage to plant; 0%=no damage to plant).
(§6) More specifically, post-emergence herbicidal activity (phytotoxicity) data, on certain tested grassy monocotyledonous weeds (and/or plants of the type Gramineae) and cereal crops in the glasshouse, are measured 14 days after application of the herbicide (14 DAA), typically for inter alia one or more of the following application rates: • (a) a post-emergence application rate of 60 g/ha of the test herbicide with or without 50 g/ha of cloquintocet-mexyl safener, and • (b) a post-emergence application rate of 90 g/ha of the test herbicide with 50 g/ha of cloquintocet-mexyl safener, and • (c) a post-emergence application rate of 120 g/ha of the test herbicide with 50 g/ha of cloquintocet-mexyl safener.
(§7) The cloquintocet-mexyl, when used, is present in the formulation containing the herbicide under test dissolved in acetone plus IF50.
(§8) The range of herbicide application rates tested sometimes includes application rates other than those shown above, and the rates can vary depending on the herbicide under test.
(§9) Herbicidal activity (phytotoxicity) is evaluated visually, and an assessed percentage phytotoxicity score is given for each herbicidal application on each plant species (with 100%=total damage to plant; 0%=no damage to plant; the assessment is recorded in increments of 1%). Two replicates are made for each experiment, and the mean herbicidal activity (phytotoxicity) data is reported.
(§10) For compounds A34, A98, A99, A87, A100, A101, A89, A120, A120A, A120B, A23, A127, A128, A89, A112 and A113 the tested weeds were as follows: Avena fatua (AVEFA), Lolium multiflorum (LOLMU), Setaria viridis (SETVI), Poa annua (POAAN), Alopecurus myosuroides (ALOMY). All five of these are grassy monocotyledonous weeds. Except for SETVI, these are all “cool-season” grassy monocotyledonous weeds.

Avena fatua (AVEFA) = experiment: as above; conditions: 14 DAA
Description: as §1, §2, §3, §4, §5, §6, §7, §8, §9, §10

[2] = tested on: Lolium multiflorum (LOLMU); experiment: as above; conditions: 14 DAA
Description: as §1, §2, §3, §4, §5, §6, §7, §8, §9, §10

Poa annua (POAAN) = experiment: as above; conditions: 14 DAA
Description: as §1, §2, §3, §4, §5, §6, §7, §8, §9, §10

Setaria viridis (SETVI) = experiment: as above; conditions: 14 DAA
Description: as §1, §2, §3, §4, §5, §6, §7, §8, §9, §10

[3] = tested on: Spring Barley “Harrington”; experiment: Test 1B glasshouse assay, post-emergence herbicidal activity against cereal crops
Description: as §1, §2, §3, §4, §5, §6, §7, §8, §9

Winter Barley “Suzuka” = experiment: as above
Description: as §1, §2, §3, §4, §5, §6, §7, §8, §9

Winter Wheat “Hereward” = experiment: as above
Description: as §1, §2, §3, §4, §5, §6, §7, §8, §9

Spring Wheat “Freya” = experiment: as above
[4] = 30 g/ha herbicide, 50 g/ha cloquintocet-mexyl
[5] = 45 g/ha herbicide, 50 g/ha cloquintocet-mexyl
[6] = 60 g/ha herbicide, 0 g/ha cloquintocet-mexyl
[7] = 60 g/ha herbicide, 50 g/ha cloquintocet-mexyl
[8] = herbicide 30 g/ha, cloquintocet-mexyl 50 g/ha
[9] = herbicide 45 g/ha, cloquintocet-mexyl 50 g/ha
[10] = herbicide 60 g/ha, cloquintocet-mexyl 0 g/ha
[11] = herbicide 60 g/ha, cloquintocet-mexyl 50 g/ha

| SMILES | Post-emergence herbicidal activity, percentage phytotoxicity, ALOMY [1, 4] [%] | Post-emergence herbicidal activity, percentage phytotoxicity, ALOMY [1, 5] [%] | Post-emergence herbicidal activity, percentage phytotoxicity, ALOMY [1, 6] [%] | Post-emergence herbicidal activity, percentage phytotoxicity, ALOMY [1, 7] [%] | Post-emergence herbicidal activity, percentage phytotoxicity, AVEFA (Avena fatua (AVEFA); [4]) [%] | Post-emergence herbicidal activity, percentage phytotoxicity, AVEFA (Avena fatua (AVEFA); [5]) [%] | Post-emergence herbicidal activity, percentage phytotoxicity, AVEFA (Avena fatua (AVEFA); [6]) [%] | Post-emergence herbicidal activity, percentage phytotoxicity, AVEFA (Avena fatua (AVEFA); [7]) [%] | Post-emergence herbicidal activity, percentage phytotoxicity, LOLMU [2, 4] [%] | Post-emergence herbicidal activity, percentage phytotoxicity, LOLMU [2, 5] [%] | Post-emergence herbicidal activity, percentage phytotoxicity, LOLMU [2, 6] [%] | Post-emergence herbicidal activity, percentage phytotoxicity, LOLMU [2, 7] [%] | Post-emergence herbicidal activity, percentage phytotoxicity, POAAN (Poa annua (POAAN); [4]) [%] | Post-emergence herbicidal activity, percentage phytotoxicity, POAAN (Poa annua (POAAN); [5]) [%] | Post-emergence herbicidal activity, percentage phytotoxicity, POAAN (Poa annua (POAAN); [6]) [%] | Post-emergence herbicidal activity, percentage phytotoxicity, POAAN (Poa annua (POAAN); [7]) [%] | Post-emergence herbicidal activity, percentage phytotoxicity, SETVI (Setaria viridis (SETVI); [4]) [%] | Post-emergence herbicidal activity, percentage phytotoxicity, SETVI (Setaria viridis (SETVI); [5]) [%] | Post-emergence herbicidal activity, percentage phytotoxicity, SETVI (Setaria viridis (SETVI); [6]) [%] | Post-emergence herbicidal activity, percentage phytotoxicity, SETVI (Setaria viridis (SETVI); [7]) [%] | also measured |
| --- | --- | --- | --- | --- | --- | --- | --- | --- | --- | --- | --- | --- | --- | --- | --- | --- | --- | --- | --- | --- | --- |
| Cc1cc(C)c(C2C(=O)C[C@@H](CCNC(=O)c3cc(Cl)ccn3)C2=O)c(C)c1 (stereo partly drawn) [Compound A127] | 48 | 63 | 78 | 68 | 55 | 80 | 85 | 90 | 65 | 83 | 97 | 83 | 0 | 0 | 0 | 0 | 97 | 99 | 100 | 100 | Percentage Phytotoxicity Spring Barley “Harrington” [3, 8]: 0%; Percentage Phytotoxicity Spring Barley “Harrington” [3, 9]: 0%; Percentage Phytotoxicity Spring Barley “Harrington” [3, 10]: 83%; Percentage Phytotoxicity Spring Barley “Harrington” [3, 11]: 8%; Percentage Phytotoxicity Winter Barley “Suzuka” (Winter Barley “Suzuka”; [8]): 0%; Percentage Phytotoxicity Winter Barley “Suzuka” (Winter Barley “Suzuka”; [9]): 0%; Percentage Phytotoxicity Winter Barley “Suzuka” (Winter Barley “Suzuka”; [10]): 85%; Percentage Phytotoxicity Winter Barley “Suzuka” (Winter Barley “Suzuka”; [11]): 5%; Percentage Phytotoxicity Winter Wheat “Hereward” (Winter Wheat “Hereward”; [8]): 0%; Percentage Phytotoxicity Winter Wheat “Hereward” (Winter Wheat “Hereward”; [9]): 0%; Percentage Phytotoxicity Winter Wheat “Hereward” (Winter Wheat “Hereward”; [10]): 65%; Percentage Phytotoxicity Winter Wheat “Hereward” (Winter Wheat “Hereward”; [11]): 5%; Percentage Phytotoxicity Spring Wheat “Freya” (Spring Wheat “Freya”; [8]): 0%; Percentage Phytotoxicity Spring Wheat “Freya” (Spring Wheat “Freya”; [9]): 3%; Percentage Phytotoxicity Spring Wheat “Freya” (Spring Wheat “Freya”; [10]): 70%; Percentage Phytotoxicity Spring Wheat “Freya” (Spring Wheat “Freya”; [11]): 5% |
| Cc1cc(C)c(C2C(=O)C[C@H](CCNC(=O)c3cccc(F)n3)C2=O)c(C)c1 (stereo partly drawn) [Compound A113] | 0 | 18 | 20 | 25 | 1 | 3 | 5 | 3 | 3 | 20 | 45 | 23 | 0 | 0 | 8 | 0 | 5 | 40 | 53 | 55 | Percentage Phytotoxicity Spring Barley “Harrington” [3, 8]: 0%; Percentage Phytotoxicity Spring Barley “Harrington” [3, 9]: 0%; Percentage Phytotoxicity Spring Barley “Harrington” [3, 10]: 33%; Percentage Phytotoxicity Spring Barley “Harrington” [3, 11]: 8%; Percentage Phytotoxicity Winter Barley “Suzuka” (Winter Barley “Suzuka”; [8]): 0%; Percentage Phytotoxicity Winter Barley “Suzuka” (Winter Barley “Suzuka”; [9]): 0%; Percentage Phytotoxicity Winter Barley “Suzuka” (Winter Barley “Suzuka”; [10]): 28%; Percentage Phytotoxicity Winter Barley “Suzuka” (Winter Barley “Suzuka”; [11]): 0%; Percentage Phytotoxicity Winter Wheat “Hereward” (Winter Wheat “Hereward”; [8]): 0%; Percentage Phytotoxicity Winter Wheat “Hereward” (Winter Wheat “Hereward”; [9]): 0%; Percentage Phytotoxicity Winter Wheat “Hereward” (Winter Wheat “Hereward”; [10]): 3%; Percentage Phytotoxicity Winter Wheat “Hereward” (Winter Wheat “Hereward”; [11]): 0%; Percentage Phytotoxicity Spring Wheat “Freya” (Spring Wheat “Freya”; [8]): 3%; Percentage Phytotoxicity Spring Wheat “Freya” (Spring Wheat “Freya”; [9]): 0%; Percentage Phytotoxicity Spring Wheat “Freya” (Spring Wheat “Freya”; [10]): 7%; Percentage Phytotoxicity Spring Wheat “Freya” (Spring Wheat “Freya”; [11]): 0% |
| Cc1cc(C)c(C2C(=O)C[C@H](CCNC(=O)c3cc(Cl)ccn3)C2=O)c(C)c1 (stereo partly drawn) [Compound A128] | 3 | 25 | 48 | 35 | 0 | 3 | 18 | 10 | 43 | 63 | 85 | 78 | 0 | 0 | 5 | 0 | 23 | 43 | 55 | 63 | Percentage Phytotoxicity Spring Barley “Harrington” [3, 8]: 0%; Percentage Phytotoxicity Spring Barley “Harrington” [3, 9]: 0%; Percentage Phytotoxicity Spring Barley “Harrington” [3, 10]: 48%; Percentage Phytotoxicity Spring Barley “Harrington” [3, 11]: 0%; Percentage Phytotoxicity Winter Barley “Suzuka” (Winter Barley “Suzuka”; [8]): 0%; Percentage Phytotoxicity Winter Barley “Suzuka” (Winter Barley “Suzuka”; [9]): 0%; Percentage Phytotoxicity Winter Barley “Suzuka” (Winter Barley “Suzuka”; [10]): 18%; Percentage Phytotoxicity Winter Barley “Suzuka” (Winter Barley “Suzuka”; [11]): 0%; Percentage Phytotoxicity Winter Wheat “Hereward” (Winter Wheat “Hereward”; [8]): 0%; Percentage Phytotoxicity Winter Wheat “Hereward” (Winter Wheat “Hereward”; [9]): 0%; Percentage Phytotoxicity Winter Wheat “Hereward” (Winter Wheat “Hereward”; [10]): 8%; Percentage Phytotoxicity Winter Wheat “Hereward” (Winter Wheat “Hereward”; [11]): 0%; Percentage Phytotoxicity Spring Wheat “Freya” (Spring Wheat “Freya”; [8]): 3%; Percentage Phytotoxicity Spring Wheat “Freya” (Spring Wheat “Freya”; [9]): 0%; Percentage Phytotoxicity Spring Wheat “Freya” (Spring Wheat “Freya”; [10]): 7%; Percentage Phytotoxicity Spring Wheat “Freya” (Spring Wheat “Freya”; [11]): 3% |
